Laboratory results reported in patent publication US9987264B2, “Method and composition for treating a serotonin receptor-mediated condition” (Vanda Pharmaceuticals Inc., priority 2007, dated 2018).

Key:
platelet rich plasma = assay: platelet aggregation assay (ADP-induced, serotonin-potentiated); assay type: cell-based, albino rabbits; conditions: Oryctolagus cuniculus
Method: In this assay, platelet rich plasma was obtained from albino rabbits. Platelet aggregation was induced in the presence of 3 μM adenosine diphosphate (ADP) and was potentiated by the addition of 10 μM serotonin. 4-[3-[4-(6-fluoro-1,2,-benzisoxazol-3-yl)-1-piperidinyl]propoxyl]-3-methoxy-benzoic acid inhibited the platelet aggregation in the presence of serotonin within 5 minutes, by 30, 50, 60, and 79% at the concentrations of 6 μM, 60 μM, 0.6 mM, and 1 mM, respectively.

human 5HT2A receptor = human 5HT2A receptor (Homo sapiens, UniProt P28223); assay: radioligand binding study, human 5HT2A receptor
human 5HT2A receptor, sequence (P28223 whole entry): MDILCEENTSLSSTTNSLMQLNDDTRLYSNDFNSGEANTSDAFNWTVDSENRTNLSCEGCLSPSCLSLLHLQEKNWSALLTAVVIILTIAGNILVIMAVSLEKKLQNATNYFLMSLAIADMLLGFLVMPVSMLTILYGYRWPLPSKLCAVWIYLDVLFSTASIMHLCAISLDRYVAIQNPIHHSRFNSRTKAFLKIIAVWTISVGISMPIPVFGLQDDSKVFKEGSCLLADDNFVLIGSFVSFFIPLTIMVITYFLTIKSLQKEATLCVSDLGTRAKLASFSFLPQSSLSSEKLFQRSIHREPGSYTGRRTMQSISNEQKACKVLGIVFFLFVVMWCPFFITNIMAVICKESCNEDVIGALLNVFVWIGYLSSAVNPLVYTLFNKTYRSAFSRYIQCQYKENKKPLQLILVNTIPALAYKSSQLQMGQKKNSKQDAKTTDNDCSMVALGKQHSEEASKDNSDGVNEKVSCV
Text: In a radioligand binding study, 4-[3-[4-(6-fluoro-1,2,-benzisoxazol-3-yl)-1-piperidinyl]propoxy]-3-methoxy-benzoic acid had the following activity against the human 5HT2A receptor: […]

[1] = DMPK studies, brain radioactivity after [14C]-labelled compound; assay type: in vivo; conditions: rats treated with [14C]-labelled compound
Text: 4-[3-[4-(6-fluoro-1,2,-benzisoxazol-3 -yl)-1-piperidinyl]propoxyl]-3-methoxy-benzoic acid appears not to cross the blood-brain barrier. Specifically, in DMPK studies using rats treated with [14C] […] Therefore, 4-[3-[4-(6-fluoro-1,2,-benzisoxazol-3-yl)-1-piperidinyl]propoxyl]-3-methoxy-benzoic acid is particularly useful in conditions that are not mediated, to a substantial degree, by receptors in the brain.

In the case of `O=C(c1ccc(F)cc1)C1CCN(CCn2c(=O)[nH]c3ccccc3c2=O)CC1` [Ketanserin, reference compound], the inhibition at 100 µM (platelet rich plasma; 100 μM, positive control, same conditions, read-out: inhibitory effect on platelet aggregation) is reported as 55%.
For `COc1cc(C(=O)O)ccc1OCCCN1CCC(c2noc3cc(F)ccc23)CC1` [4-[3-[4-(6-fluoro-1,2,-benzisoxazol-3-yl)-1-piperidinyl]propoxy]-3-methoxy-benzoic acid], the IC50 (human 5HT2A receptor) was 13.7 nM, the Ki (human 5HT2A receptor) was 3.91 nM and the inhibition at 0.03 µM (human 5HT2A receptor) was 66%. The nH (human 5HT2A receptor) was 1.05 +/− .091, the inhibition at 6 µM (platelet rich plasma; 5 min, 6 μM, 3 μM ADP + 10 μM serotonin, within 5 minutes) was 30% and the inhibition at 60 µM (platelet rich plasma; 5 min, 60 μM, 3 μM ADP + 10 μM serotonin, within 5 minutes) was 50%. For the same compound, the inhibition at 600 µM (platelet rich plasma; 5 min, 0.6 mM, 3 μM ADP + 10 μM serotonin, within 5 minutes) was 60%, the inhibition at 1000 µM (platelet rich plasma; 5 min, 1 mM, 3 μM ADP + 10 μM serotonin, within 5 minutes) was 79% and the “radioactivity concentrations in the brain” value [1] was “none of the animals had measurable radioactivity concentrations in the brain”.
